Assay results taken from patent US8680097B2, “Benzothiophene alkanol piperazine derivatives and their use as antidepressant” (CSPC Zhongqi Pharmaceutical Technology (Shijiazhuang) Co. …, priority 2008, dated 2014).
Read-outs that look alike come from different tables or passages of the source.

How the values were obtained:
[1] = system: uptake of DA by brain synaptosomes; assay: [3H]DA reuptake by rat brain synaptosomes; format: biochemical; conditions: for inhibition effect on the uptake of DA: rat corpus striatum synaptosomes, control drugs and tested substances all 0.1 mmol/L (method and b297 say 10 μmol/L), inhibition rate; for inhibition activity on the reuptake of DA (in words): at the concentration of 10 μmol/L
[2] = system: uptake of 5-HT by brain synaptosomes; assay: [3H]5-HT reuptake by rat brain synaptosomes; format: biochemical; conditions: at the concentration of 10 μmol/L
[3] = system: uptake of NA by brain synaptosomes; assay: [3H]NA reuptake by rat brain synaptosomes; format: biochemical; conditions: at the concentration of 10 μmol/L
[4] = Forced Swimming Test in Learned Helplessness Experiment; format: in vivo
Source text: 2. Results of in vivo antidepression of compound VII-10

mice = assay: Acute toxicity, LD50 single-fed; format: in vivo; conditions: statistics of Bliss
Procedure: Initial screening was performed by the method reported in “Modern Pharmacological Experiments Mothods” edited by Zhang Juntian.

[5] = system: histidine auxotrophic mutant strains of Salmonella TA97, TA98, TA100 and TA102; format: cell-based
Source text: 4. Bacterial reverse mutation test for VII-10.
Bacterium: histidine auxotrophic mutant strains of Salmonella TA97, TA98, TA100 and TA102
Experimental method: the method reported in the literature: Maron D M et al: (1983) Mutay Res. 113, 173-216.
Results: The experiment included two parts: −S9 and +S9. […] The other dosages had no bacteriostatic effect for all the strains, with a well growing background. […] Ames test result was negative.

Compound	inhibition effect on the uptake of DA [1]	inhibition activity on the reuptake of 5-HT (in words) [2]	inhibition activity on the reuptake of NA (in words) [3]	inhibition activity on the reuptake of DA (in words) [1]	other results
CC(C(O)c1csc2ccccc12)N1CCN(Cc2ccccc2)CC1 (single isomer, unassigned) [VII-4, N^1-benzyl-N^4-[1-methyl-2-hydroxy-2-(benzo[b]thiophene-3-yl)]ethylpiperazine (threo isomer)]	14.5 ± 10.0	–	–	–	–
CC(C(O)c1csc2ccccc12)N1CCN(Cc2ccccc2)CC1 (single isomer, unassigned) [VII-5, N^1-benzyl-N^4-[1-methyl-2-hydroxy-2-(benzo[b]thiophene-3-yl)]ethylpiperazine (erythro isomer)]	11.4 ± 11.5	–	–	–	–
Clc1ccc([C@]23CNC[C@H]2C3)cc1Cl [DOV 21947, reference compound]	104.1 ± 4.2 ^	–	–	–	–
Cl.OC(CCN1CCN(Cc2ccccc2)CC1)c1csc2ccccc12 (stereo not drawn) [VII-10, N^1-benzyl-N^4-[3-hydroxy-3-(benzo[b]thiophene-3-yl)]propylpiperazine hydrochloride]	78.0 ± 8.0	stronger inhibition activity	stronger inhibition activity	stronger inhibition activity	effect on immobility time in swimming (in words) [4]: significantly reduce the immobility time; immobility time ([4]; dosage 6.35 mg/kg): 90.7 ± 46.3 s; immobility time ([4]; dosage 12.7 mg/kg): 87.5 ± 35.7 s; immobility time ([4]; dosage 25.4 mg/kg, hydrochloride): 84 ± 48.9 s; LD50 (mice): 1100 mg/kg; Ames test result ([5]; TA97, TA98, TA100, TA102, −S9 and +S9): negative; dose showing bacteriostatic effect ([5]; TA97 in +S9 test system): 5000 μg per culture dish; dose showing bacteriostatic effect ([5]; TA98 in −S9 test system): 5000 μg per culture dish; number of reverse mutation colonies ([5]; all dosages tested, both −S9 and +S9 test systems): no significant increase
Cl.OC(CCN1CCN(CC=Cc2ccccc2)CC1)c1csc2ccccc12 (stereo not drawn) [VII-11, N^1-cinnamyl-N^4-[3-hydroxy-3-(benzo[b]thiophene-3-yl)]propylpiperazine hydrochloride]	97.9 ± 1.1	stronger inhibition activity	stronger inhibition activity	stronger inhibition activity	–
CC(c1ccccc1)N1CCN(CCC(O)c2csc3ccccc23)CC1.Cl (stereo not drawn) [VII-12, N^1-α-phenethyl-N^4-[3-hydroxy-3-(benzo[b]thiophene-3-yl)]propylpiperazine hydrochloride]	98.0 ± 1.5	stronger inhibition activity	stronger inhibition activity	stronger inhibition activity	–
Cl.OC(CCN1CCN(C(c2ccccc2)c2ccccc2)CC1)c1csc2ccccc12 (stereo not drawn) [VII-14, N^1-benzhydryl-N^4-[3-hydroxy-3-(benzo[b]thiophene-3-yl)]propylpiperazine hydrochloride]	87.3 ± 4.3	stronger inhibition activity	stronger inhibition activity	stronger inhibition activity	–
Cl.OC(CCN1CCN(CCOC(c2ccc(F)cc2)c2ccc(F)cc2)CC1)c1csc2ccccc12 (stereo not drawn) [VII-15]	102.2 ± 1.3 ^	stronger inhibition activity	stronger inhibition activity	stronger inhibition activity	–
COc1ccc(C(CN(C)C)C2(O)CCCCC2)cc1 (stereo not drawn) [Venlafaxine, reference compound]	48.6 ± 4.1 ^	–	–	–	immobility time ([4]; dosage 4.56 mg/kg): 57.1 ± 37.8 s; immobility time ([4]; dosage 9.12 mg/kg): 77.4 ± 47.2 s; immobility time ([4]; dosage 18.24 mg/kg): 80.8 ± 46.8 s
